Assays:
L1210 = test: Antiproliferative activity against mouse L1210 cells assessed as inhibition of cell proliferation incubated for 48 hrs by Coulter counter method; assay type: functional, cell-based; conditions: L1210, 48 h
[1] = Antiproliferative activity against human IMC cells assessed as inhibition of cell proliferation incubated for 48 hrs by Coulter counter method; assay type: functional, cell-based
Candida albicans = test: Antifungal activity against Candida albicans assessed as fungal growth inhibition by microbroth dilution method; assay type: functional
HCT-116 = test: Cytotoxicity against human HCT-116 cells assessed as cell growth inhibition by MTT assay; assay type: functional, cell-based
SW-620 = test: Antitumor activity against human SW620 cells xenografted in BALB/c nude mouse assessed as tumor growth inhibition at 10 mg/kg/day, ip for 28 days relative to control; assay type: functional; conditions: SW-620, 672 h, time 28 day, read-out: TGI
HL-60 = test: Cytotoxicity against human HL-60 cells assessed as cell growth inhibition; assay type: functional, cell-based
Bel-7402 = test: Cytotoxicity against human Bel-7402 cells assessed as cell growth inhibition; assay type: functional, cell-based
[2] = molecular target: Phosphotyrosine-protein phosphatase PTPB (Mycobacterium tuberculosis, UniProt P96830); test: Inhibition of N-terminal His6-tagged full-length Mycobacterium tuberculosis H37Rv PTPB expressed in Escherichia coli BL21 (DH3) using fluorogenic phosphatase substrate by fluorescence based assay
Phosphotyrosine-protein phosphatase PTPB, sequence (P96830 whole entry): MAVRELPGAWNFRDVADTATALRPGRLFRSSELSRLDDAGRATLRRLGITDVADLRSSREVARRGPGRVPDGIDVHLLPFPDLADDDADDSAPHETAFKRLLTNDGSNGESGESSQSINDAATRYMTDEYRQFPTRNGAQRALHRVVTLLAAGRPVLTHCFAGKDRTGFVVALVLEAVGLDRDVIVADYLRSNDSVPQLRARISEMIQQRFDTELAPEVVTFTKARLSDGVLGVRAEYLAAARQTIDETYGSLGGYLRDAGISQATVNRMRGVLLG

NSCLC = test: Cytotoxicity against human NSCLC cells assessed as cell growth inhibition incubated for 96 hrs by Cell Titer Glo assay; assay type: functional, cell-based
NCI-H1395 = test: Cytotoxicity against human NCI-H1395 cells assessed as cell growth inhibition incubated for 96 hrs by Cell Titer Glo assay; assay type: functional, cell-based; conditions: NCI-H1395, 96 h
HCC1395 = test: Cytotoxicity against human HCC1395 cells assessed as cell growth inhibition incubated for 96 hrs by Cell Titer Glo assay; assay type: functional, cell-based; conditions: HCC1395, 96 h
SF-268 = test: Cytotoxicity against human SF-268 cells assessed as cell growth inhibition incubated for 72 hrs by SRB assay; assay type: functional, cell-based; conditions: SF-268, 72 h
MCF7 = test: Cytotoxicity against human MCF7 cells assessed as cell growth inhibition incubated for 72 hrs by SRB assay; assay type: functional, cell-based; conditions: MCF7, 72 h
HepG2 = test: Cytotoxicity against human HepG2 cells assessed as cell growth inhibition incubated for 72 hrs by SRB assay; assay type: functional, cell-based; conditions: HepG2, 72 h
A549 = test: Cytotoxicity against human A549 cells assessed as cell growth inhibition incubated for 72 hrs by SRB assay; assay type: functional, cell-based; conditions: A549, 72 h
[3] = Suppression of spontaneous calcium oscillation frequency in C57Bl/6J mouse primary neocortical neuron incubated for 15 mins by Fluo-4 dye based assay; assay type: functional, cell-based; conditions: 0.25 h
[4] = Suppression of spontaneous calcium oscillation amplitude in C57Bl/6J mouse primary neocortical neuron incubated for 15 mins by Fluo-4 dye based assay; assay type: functional, cell-based; conditions: 0.25 h
[5] = Suppression of spontaneous calcium oscillation frequency in 4-AP-induced C57Bl/6J mouse primary neocortical neuron incubated for 25 mins by Fluo-4 dye based assay; assay type: functional, cell-based
[6] = Suppression of spontaneous calcium oscillation amplitude in 4-AP-induced C57Bl/6J mouse primary neocortical neuron incubated for 25 mins by Fluo-4 dye based assay; assay type: functional, cell-based
[7] = molecular target: Tyrosine-protein phosphatase non-receptor type 1 (Homo sapiens, UniProt P18031); test: Inhibition of recombinant human PTP1B expressed in Escherichia coli using p-nitrophenyl phosphate as substrate preincubated for 15 mins followed by substrate addition measured after 60 mins by absorbance based assay
Tyrosine-protein phosphatase non-receptor type 1, sequence (P18031 whole entry): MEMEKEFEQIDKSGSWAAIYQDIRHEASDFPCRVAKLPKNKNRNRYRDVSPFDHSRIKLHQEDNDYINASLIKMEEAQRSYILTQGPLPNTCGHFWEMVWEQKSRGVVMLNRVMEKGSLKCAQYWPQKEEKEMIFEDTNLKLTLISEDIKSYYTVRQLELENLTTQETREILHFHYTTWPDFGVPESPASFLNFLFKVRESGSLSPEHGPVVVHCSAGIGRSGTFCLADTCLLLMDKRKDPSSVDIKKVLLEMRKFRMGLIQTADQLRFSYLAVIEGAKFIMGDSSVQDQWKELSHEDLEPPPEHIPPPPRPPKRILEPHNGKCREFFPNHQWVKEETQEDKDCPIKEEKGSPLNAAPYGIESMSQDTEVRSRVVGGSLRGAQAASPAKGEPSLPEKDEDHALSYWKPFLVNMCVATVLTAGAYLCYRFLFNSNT

[8] = molecular target: Tyrosine-protein phosphatase non-receptor type 2 (Homo sapiens, UniProt P17706); test: Inhibition of recombinant human TCPTP expressed in Escherichia coli using p-nitrophenyl phosphate as substrate preincubated for 15 mins followed by substrate addition measured after 60 mins by absorbance based assay
Tyrosine-protein phosphatase non-receptor type 2, sequence (P17706 whole entry): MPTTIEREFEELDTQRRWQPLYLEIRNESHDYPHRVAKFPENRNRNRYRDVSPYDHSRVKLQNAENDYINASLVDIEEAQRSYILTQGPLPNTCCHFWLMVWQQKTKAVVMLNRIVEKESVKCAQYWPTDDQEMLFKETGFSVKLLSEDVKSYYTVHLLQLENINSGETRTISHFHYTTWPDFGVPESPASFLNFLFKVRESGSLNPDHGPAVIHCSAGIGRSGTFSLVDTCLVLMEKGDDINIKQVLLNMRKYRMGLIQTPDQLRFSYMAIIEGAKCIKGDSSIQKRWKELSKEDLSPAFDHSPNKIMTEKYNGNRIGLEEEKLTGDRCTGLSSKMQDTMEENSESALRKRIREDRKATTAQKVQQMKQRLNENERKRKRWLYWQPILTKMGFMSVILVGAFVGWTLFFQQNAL

MDA-MB-435 = test: Antiproliferative activity against human MDA-MB-435 cells assessed as inhibition of cell proliferation incubated for 24 hrs by MTT assay; assay type: functional, cell-based; conditions: MDA-MB-435, 24 h
Androgen receptor = Androgen receptor (Homo sapiens, UniProt P10275); test: Displacement of [3H]-DHT from recombinant androgen receptor (unknown origin) incubated for 3 hrs by liquid scintillation counter method
Androgen receptor, sequence (P10275 whole entry): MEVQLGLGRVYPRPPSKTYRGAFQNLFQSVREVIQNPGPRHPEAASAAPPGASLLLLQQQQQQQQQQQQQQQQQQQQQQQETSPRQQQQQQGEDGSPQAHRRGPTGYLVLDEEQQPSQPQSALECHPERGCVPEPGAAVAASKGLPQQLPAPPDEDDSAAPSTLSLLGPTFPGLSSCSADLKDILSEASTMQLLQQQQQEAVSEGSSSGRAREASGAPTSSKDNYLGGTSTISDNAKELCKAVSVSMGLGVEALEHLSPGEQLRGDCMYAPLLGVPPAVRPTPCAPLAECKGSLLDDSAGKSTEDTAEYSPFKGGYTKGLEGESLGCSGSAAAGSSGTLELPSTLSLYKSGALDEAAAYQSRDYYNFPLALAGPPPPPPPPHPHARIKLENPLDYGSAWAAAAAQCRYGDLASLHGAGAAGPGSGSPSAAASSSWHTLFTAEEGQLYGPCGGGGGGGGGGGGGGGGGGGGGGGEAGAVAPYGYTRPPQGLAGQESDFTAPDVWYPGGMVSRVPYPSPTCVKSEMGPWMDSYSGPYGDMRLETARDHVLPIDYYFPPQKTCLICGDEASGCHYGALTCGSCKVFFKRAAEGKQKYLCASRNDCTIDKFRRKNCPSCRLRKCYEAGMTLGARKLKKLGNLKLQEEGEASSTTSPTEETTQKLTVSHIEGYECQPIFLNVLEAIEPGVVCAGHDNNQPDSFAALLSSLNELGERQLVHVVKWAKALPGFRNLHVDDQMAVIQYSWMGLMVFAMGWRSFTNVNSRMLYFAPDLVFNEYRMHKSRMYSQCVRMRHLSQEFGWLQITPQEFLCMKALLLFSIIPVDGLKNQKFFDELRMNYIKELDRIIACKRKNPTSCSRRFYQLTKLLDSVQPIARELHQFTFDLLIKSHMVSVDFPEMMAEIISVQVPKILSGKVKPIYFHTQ

[9] = Cytotoxicity against human H7402 cells assessed as cell growth inhibition incubated for 24 hrs by MTT assay; assay type: functional, cell-based; conditions: H7402, 24 h

Compound: CN1C=C(C(N)=O)[C@@H]2C[C@H](O)[C@@](NC(=O)CS(N)(=O)=O)(C(=O)O)[C@@H]2C1
- IC50 (L1210): 0.84 µM
- IC50 [1]: 0.82 µM

Compound: CC1=C(Cn2c3ccc(Br)c(=O)c-3nc3ccccc32)CCC(C)(C)C1
- MIC (Candida albicans): 0.95 µM
- IC50 (HCT-116): 0.049 µM

Compound: C=C1C(=O)C=C2C=C3[C@@H](O)C(C)(C)C[C@@]3(O)[C@]12C
- inhibition in vivo at 10 mg/kg/day (SW-620): 50%

Compound: C[C@@H]1C=CC(=O)[C@@]2(C)CC[C@@H]3[C@@H]4[C@@](C)(CC[C@@]4(C)CO)C[C@@]132
- IC50 (HL-60): 0.97 µM
- IC50 (Bel-7402): 0.038 µM

Compound: CC(C)[C@H]1CC[C@@]2(C)CC[C@]3(CO)CC4=C(C(=O)O)CC[C@H]4[C@]4(C)C[C@@H]4[C@H]3[C@H]12
- IC50 [2]: 18 µM

Compound: COc1cc2nc(C(=O)NCC(=O)O)sc2c(C/C=C(\C)CC/C=C(\C)CC/C=C(\C)CCC/C(C)=C\CC(=O)O)c1O
- IC50 (NSCLC): 1.5 µM
- IC50 (NCI-H1395): 2.5 µM
- IC50 (HCC1395): 6.8 µM

Compound: C=C(C)[C@H]1CC=C(C)[C@H]2C[C@H]3Cc4c(C)cc(O)cc4O[C@@]3(C)C[C@H]12
- IC50 (SF-268): 20 µM
- IC50 (MCF7): 20 µM
- IC50 (HepG2): 20 µM
- IC50 (A549): 20 µM

Compound: CC1=CC[C@H](C(C)(C)O)[C@H]2C[C@]3(C)Oc4cc(O)cc(C)c4C[C@@H]3C[C@H]12
- IC50 (SF-268): 20 µM
- IC50 (MCF7): 20 µM
- IC50 (HepG2): 20 µM
- IC50 (A549): 20 µM

Compound: C=C1CC[C@H]2C(C)(C)[C@@H](O)CC[C@]2(C)[C@H]1CC(=O)[C@]1(O)C=C(CSC[C@H](O)C(=O)OC)C(=O)C1
- IC50 [3]: 3.2 µM
- IC50 [4]: 1.8 µM
- IC50 [5]: 10 µM
- IC50 [6]: 4.6 µM

Compound: CC1(C)Oc2c(nc3c4c2C(=O)CC[C@]4(C)[C@@]2(C)c4[nH]c5ccccc5c4C[C@@H]2C3)[C@H]1O
- IC50 [7]: 1.7 µM
- IC50 [8]: 1.7 µM

Compound: COC(=O)N[C@H]1[C@@H](C)O[C@@H](O[C@H]2C/C=C(\C)[C@]3(C)CC[C@@H]4[C@@H](O[C@H]5C[C@@H](O[C@H]6C[C@@H](O)[C@@H](O[C@@H]7C[C@@H](O)[C@@H](OC)[C@H](C)O7)[C@H](C)O6)C[C@H](C)O5)[C@@H](C)C[C@H](C)[C@H]4[C@]3(C)C(=O)C3C(=O)OC4(C[C@@H](C)C(CO)=C[C@H]4/C=C/2C)C3=O)C[C@]1(C)N (stereo partly drawn)
- IC50 (MDA-MB-435): 7.5 µM

Compound: C=C[C@@]1(C)CC[C@H]2C(C=C[C@H]3[C@H](CO)CC(=O)C[C@]23C)C1 (stereo partly drawn)
- IC50 (Androgen receptor): 9.71 µM

Compound: COC(=O)N[C@H]1[C@@H](C)O[C@@H](O[C@H]2C/C=C(\C)[C@]3(C)CC[C@@H]4[C@@H](O[C@H]5C[C@@H](O[C@H]6C[C@@H](O)[C@@H](O[C@@H]7C[C@@H](O)[C@@H](OC)[C@H](C)O7)[C@H](C)O6)C[C@H](C)O5)[C@@H](C)C[C@H](C)[C@H]4[C@]3(C)C(=O)C3C(=O)OC4(C[C@@H](C)C(CO)=C[C@H]4/C=C/2C)C3=O)C[C@]1(C)[N+](=O)[O-] (stereo partly drawn)
- IC50 [9]: 0.6 µM

Source: ChEMBL document CHEMBL5104094, “Chemistry, biosynthesis and biological activity of terpenoids and meroterpenoids in bacteria and fungi isolated from different marine habitats” (Eur J Med Chem, 2021)
